Experiments:
Experiment in all cases: AUC of viability dose-response curve (% viability x log10 dose units); higher = less sensitive
Conditions in all cases: 48 h
[1] = tested on: NOMO1
In short: (§1)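 Medium-adapted leukemia cells in 1536-well plates, at 500 or 1000 cells/well, were incubated for 48 h at 37°C with library compounds in DMSO at 11 threefold doses from 47 μM to 0.79 nM. CellTiter-Glo One luminescence normalised per plate to DMSO and cell-free wells was fitted with a four-parameter log-logistic model over log10 doses. Area under the curve was integrated from this fit by trapezoidal rule, with curves beyond full viability scaled and failed quality-control curves removed.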

[2] = tested on: SEM cells
In short: as §1

[3] = tested on: P12-Ichikawa
In short: as §1

[4] = RPMI 5 mM glucose + 10% dialyzed FBS

Structure (SMILES)	AUC of viability dose-response curve ([1]; HPLM + 10% dialyzed FBS)	AUC of viability dose-response curve ([1]; RPMI 5 mM glucose + 10% FBS)	AUC of viability dose-response curve [1, 4]	AUC of viability dose-response curve ([2]; HPLM + 10% dialyzed FBS)	AUC of viability dose-response curve ([2]; RPMI 5 mM glucose + 10% FBS)	AUC of viability dose-response curve [2, 4]	AUC of viability dose-response curve ([3]; HPLM + 10% dialyzed FBS)	AUC of viability dose-response curve ([3]; RPMI 5 mM glucose + 10% FBS)	AUC of viability dose-response curve [3, 4]
CC(C)C[C@H](CN)CC(=O)O	460	445	458	449	452	451	450	458	455
O=C1c2c(O)cccc2[C@H]([C@@H]2O[C@H](CO)[C@@H](O)[C@H](O)[C@H]2O)c2cc(CO)cc(O)c21	455	404	431	449	431	441	467	467	465
COc1nc(-c2ccc3c(c2)OCO3)n(-c2ccc(NC(=O)CSc3ccccc3)cc2)n1	440	449	455	457	443	453	470	454	428
COc1cc2ncnc(-n3nc(-c4ccccn4)nc3N)c2cc1OC	437	406	418	360	326	317	447	436	413
CCC[C@@H]1C[C@@H](C(=O)N[C@@H]([C@H]2O[C@H](SC)[C@H](O)[C@@H](O)[C@H]2O)[C@@H](C)O)N(C)C1.Cl	428	463	457	471	473	465	448	438	399
ClC1=CC=C(CCCOC/2=N/NC(=O)C(=C2NCC3=CN=CC=C3)/Br)C=C1	344	390	392	323	358	391	387	430	382
Cl.c1cnc2cc3c(cc2n1)C1CNCC3C1	465	470	467	458	444	461	474	444	467
CCCCCCCCCCCC(CC1OC(=O)C1CCCCCC)OC(=O)C(CC(C)C)NC=O (centres undefined)	452	461	456	407	343	391	443	440	443
O=C(O)[C@H](Cc1c[nH]c2ccccc12)N1C(=O)c2ccccc2C1=O	440	426	470	445	440	405	474	462	460
C[C@H]([C@H](O)CCC(C)(C)O)[C@H]1CC[C@@]2(O)C/3=C/C(=O)[C@@H]4C[C@@H](O)[C@@H](O)C[C@]4(C)[C@H]3CC[C@]12C	470	468	476	461	458	474	460	452	470
C[C@@H]1CC[C@@]2(OC1)O[C@H]3C[C@H]4[C@@H]5C/C=C6/C[C@H](CC[C@]6(C)[C@H]5CC[C@]4(C)[C@H]3[C@@H]2C)O[C@@H]7O[C@H](CO)[C@@H](O[C@@H]8O[C@@H](C)[C@H](O)[C@@H](O)[C@H]8O)[C@H](O)[C@H]7O[C@@H]9O[C@@H](C)[C@H](O)[C@@H](O)[C@H]9O	452	453	449	440	431	429	450	452	445

From the supplement of paper PMC11451515
